Data: patent US20230355558A1 (priority 2022, published 2023)
“Also recorded” adds a separate entry of the source.

Tests used:
[1] = tested on: Human neuroblastoma cell line Sh-Sy5y; assay: Cellular toxicity assay (MTT assay), neurotoxicity; conditions: Sh-Sy5y cells, 1 ug/mL, 24 hours
[2] = Fibrin clot swelling at 3% loading, with and without plasmin; conditions: for fibrin clot swelling in degrading medium prior to degradation: medium containing plasmin; for fibrin clot swelling in non-degrading medium: no plasmin
[3] = Qualitative test for relative solubility
plasmin = plasmin (Homo sapiens, UniProt P00747); assay: Fibrin clot degradation by plasmin (gravimetric, protease inhibition); format: biochemical; conditions: for protease inhibition activity (inhibiting plasmin mediated degradation of fibrin clots): 0-1 mM in fibrin clots, plasmin in PBS buffer; for protease inhibition activity (inhibiting plasmin mediated degradation of fibrin clots) / resistance against fibrin clot degradation by plasmin: up to 48 hours; for resistance against fibrin clot degradation by plasmin: about 0.1 mM, triplicate; for plasmin-mediated degradation of fibrin clots at 3% loading: about 3% loading in fibrin clots; for protease inhibition activity compared with TA (conclusion): fibrin clot / plasmin system; for degradation of the clot: about 16 hours
Chain of plasmin (P00747 581-810): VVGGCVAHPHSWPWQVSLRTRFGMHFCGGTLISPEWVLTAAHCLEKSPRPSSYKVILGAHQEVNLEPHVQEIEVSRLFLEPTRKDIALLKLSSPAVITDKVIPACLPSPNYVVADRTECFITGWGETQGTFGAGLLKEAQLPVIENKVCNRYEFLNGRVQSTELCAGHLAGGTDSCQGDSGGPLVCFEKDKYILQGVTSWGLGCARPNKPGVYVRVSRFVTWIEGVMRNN
Chain of plasmin (P00747 97-580): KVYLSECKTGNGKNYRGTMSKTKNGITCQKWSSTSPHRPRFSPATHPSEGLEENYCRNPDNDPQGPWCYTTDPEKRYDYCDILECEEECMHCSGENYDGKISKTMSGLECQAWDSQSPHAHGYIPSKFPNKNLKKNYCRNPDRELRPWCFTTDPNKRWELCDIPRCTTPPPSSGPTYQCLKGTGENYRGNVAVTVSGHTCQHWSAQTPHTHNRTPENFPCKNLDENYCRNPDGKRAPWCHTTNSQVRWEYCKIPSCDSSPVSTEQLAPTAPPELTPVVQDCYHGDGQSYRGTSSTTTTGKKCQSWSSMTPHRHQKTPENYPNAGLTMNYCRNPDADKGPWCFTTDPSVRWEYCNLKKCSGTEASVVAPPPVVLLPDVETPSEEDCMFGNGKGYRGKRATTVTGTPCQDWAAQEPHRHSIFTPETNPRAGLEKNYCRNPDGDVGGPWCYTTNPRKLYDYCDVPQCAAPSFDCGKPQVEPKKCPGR

[4] = tested on: NDV (Newcastle disease virus) strain R2B

Row | Structure (SMILES) | cytotoxicity or neurotoxicity compared with TA [1] | fibrin clot swelling in degrading medium prior to degradation [2] | fibrin clot swelling in non-degrading medium [2] | water solubility [3] | solvent needed to dissolve in buffer relative to water ([3]; pH 7.4 100 mM phosphate buffer versus water) | solubility in methanol or propanol ([3]; room temperature) | protease inhibition activity (inhibiting plasmin mediated degradation of fibrin clots) (plasmin; pH 7.4, 37° C.) | resistance against fibrin clot degradation by plasmin (plasmin; pH 7.4, 37° C.) | plasmin-mediated degradation of fibrin clots at 3% loading (plasmin) | protease inhibition activity compared with TA (conclusion) (plasmin) | concentration at which efficacious against fibrin clot degradation (plasmin; plasmin, pH 7.4, 37° C.) | antiviral activity versus virus control [4] | toxicity to cells treated with compound only [4] | degradation of the clot (plasmin; 0.1 mM, plasmin, pH 7.4, 37° C.) | degradation of the clot (plasmin; 1 mM, plasmin, pH 7.4, 37° C.)
1 | NCC1CCC(C(=O)[O][Ca][O]C(=O)C2CCC(CN)CC2)CC1 (stereo not shown) [Ca-TA, Calcium bis-tranexamate] | comparable cytotoxicity or neurotoxicity results as that of TA | more than 50% | more than 50% | water soluble | approximately four times as much solvent | not soluble to a significant degree | dose-dependent protease inhibition activity; also recorded: exhibit protease inhibition activity | effective resistance | inhibited plasmin-mediated degradation of the fibrin clots for a longer period | comparable to that of TA | ≤ 0.1 mM | no significant difference between the virus control and treated | no toxicity was observed | – | –
2 | COCC(=O)NCC1CCC(C(=O)O)CC1 (stereo not shown) [MTA, N-(methoxy-acetamido) tranexamic acid] | reduced neurotoxicity than TA | – | – | water soluble | – | – | exhibit protease inhibition activity | – | – | eliminates or significantly reduces protease inhibition activity; also recorded: reduced protease inhibition activity than TA | – | no significant difference between the virus control and treated | – | 100% | about 85.1+/−0.6%
3 | NCC1CCC(C(=O)O)CC1 (stereo not shown) [TA, Tranexamic acid, reference compound] | – | degraded without swelling | did not swell | – | – | – | – | effective resistance | inhibited plasmin-mediated degradation of the fibrin clots for a longer period | – | – | no significant difference between the virus control and treated | – | – | –
